According to patent publication US5132313A, “Non-competitive NMDA receptor antagonists and methods for their use” (priority 1989, dated 1992):

Biological target: PCP binding sites of the NMDA receptor complex
Set-up: species or system rat
Settings: for IC50: displacing (+)-[3H]MK-801 bound to rat brain homogenates, 0.5-1 nM radioligand, 100 μM glutamate, 30 μM glycine, 2 h room temperature, pH 7.4, mean of three experiments in duplicate ±SEM; for Relative Potency (%): relative to PCP = 100%, displacing (+)-[3H]MK-801; for binding potency compared with corresponding S enantiomer: R enantiomers 1, 3, 5, 7 versus 2, 4, 6, 8

Compound | IC50 | Relative Potency (%) | binding difference between enantiomeric pair of compounds 3 and 4 (compound 3 (R) versus compound 4 (S)) | binding potency compared with PCP (in words) | binding potency compared with corresponding S enantiomer (in words)
c1csc(C2(N3CCCCC3)CCCCC2)c1 [TCP, 1-[1-(2-thienyl)-cyclohexyl]-piperidine, reference compound] | 11 ± 1 nM | 318% |  |  | 
N[C@]12CCCC[C@H]1Cc1ccccc12 [Compound 3] | 19 ± 1 nM | 184% | 73 fold | more potent in binding than PCP | more potent in binding than the corresponding enantiomers of S stereochemistry
CCN[C@]12CCCC[C@H]1Cc1ccccc12 [Compound 7] | 68 ± 7 nM | 51% |  |  | more potent in binding than the corresponding enantiomers of S stereochemistry
CCN[C@@]12CCCC[C@@H]1Cc1ccccc12 [Compound 8] | 546 ± 40 nM | 6% |  |  | 
c1ccc(C2(N3CCCCC3)CCCCC2)cc1 [PCP, phencyclidine, reference compound] | 35 ± 1 nM | 100% |  |  | 
N[C@@]12CCCC[C@@H]1Cc1ccccc12 [Compound 4] | 1390 ± 49 nM | 3% |  |  | 
N[C@]12CC=CC[C@H]1Cc1ccccc12 [Compound 1] | 114 ± 14 nM | 31% |  |  | more potent in binding than the corresponding enantiomers of S stereochemistry
N[C@@]12CC=CC[C@@H]1Cc1ccccc12 [Compound 2] | 2240 ± 135 nM | 2% |  |  | 
